Test: Thermal property drop index (TDI) calculated from HPLC peak area fractions of recycled BHET
Assay type: physicochemical
Conditions: thermal property drop index = [DEG-ester-1] + [DEG-ester-2] × 2 + exp[HA-ester], from HPLC peak area fractions (%)
Experimental: About 0.01 g of recycled bis(2-hydroxyethyl) terephthalate was diluted in about 20 ml of methanol, which was analyzed by high-performance liquid chromatography (HPLC) (model: Waters e2695, column: C18 (4.6 × 250 mm), 5 µm, UV detector: 242 nm, injection volume: 10 µl, eluent (gradient) A: H2O + H3PO4, B: acetonitrile) Thereafter, the peak area fractions (%) of the following components among the total peak area of HPLC were obtained. • MHET: monohydroxyethyl terephthalate • BHET: bis(2-hydroxyethyl) terephthalate, • DEG-ester-1: 2-hydroxyethyl[2-(2-hydroxyethoxy)ethyl] terephthalate • DEG-ester-2: bis[2-(2-hydroxyethoxy)ethyl]benzene-1,4-dicarboxylate • HA-ester: 2-hydroxyethyl(2-acetoxyethyl) terephthalate • Dimer: BHET dimer • Trimer: BHET trimer
Recycled bis(2-hydroxyethyl) terephthalate was subjected to HPLC analysis in the same manner as in section (1) above. The thermal property drop index (TDI) defined by the following equation was then calculated. TDI = [DEG−ester−1] + [DEG−ester−2] × 2 + exp^(∧) [HA−ester] [formula]
Here, DEG-ester-1 is the peak area fraction (%) of 2-hydroxyethyl[2-(2-hydroxyethoxy)ethyl] terephthalate, DEG-ester-2 is the peak area fraction (%) of bis[2-(2-hydroxyethoxy)ethyl]benzene-1,4-dicarboxylate, and HA-ester is the peak area fraction (%) of 2-hydroxyethyl(2-acetoxyethyl) terephthalate. It was calculated by taking only the numerical values excluding the units of these parameters.

Compound O=C(OCCO)c1ccc(C(=O)OCCO)cc1 [r-BHET A6, bis(2-hydroxyethyl) terephthalate] has a TDI (listed as A6) of 1.86.

In the case of O=C(OCCO)c1ccc(C(=O)OCCO)cc1 [r-BHET A2, bis(2-hydroxyethyl) terephthalate], the TDI (listed as A2) was 1.59.

O=C(OCCO)c1ccc(C(=O)OCCO)cc1 [r-BHET A1, bis(2-hydroxyethyl) terephthalate] gave a TDI (listed as A1) of 1.71.

Compound O=C(OCCO)c1ccc(C(=O)OCCO)cc1 [r-BHET A4, bis(2-hydroxyethyl) terephthalate] has a TDI (listed as A4) of 1.86.

Work on O=C(OCCO)c1ccc(C(=O)OCCO)cc1 [r-BHET B2, bis(2-hydroxyethyl) terephthalate, reference compound] yielded a TDI (listed as B2) of 6.87.

Compound O=C(OCCO)c1ccc(C(=O)OCCO)cc1 [r-BHET A3, bis(2-hydroxyethyl) terephthalate] has a TDI (listed as A3) of 1.74.

With O=C(OCCO)c1ccc(C(=O)OCCO)cc1 [r-BHET B1, bis(2-hydroxyethyl) terephthalate, reference compound] the TDI (listed as B1) was 9.23.

In the case of O=C(OCCO)c1ccc(C(=O)OCCO)cc1 [r-BHET A5, bis(2-hydroxyethyl) terephthalate], the TDI (listed as A5) was 2.55.

For O=C(OCCO)c1ccc(C(=O)OCCO)cc1 [r-BHET A7, bis(2-hydroxyethyl) terephthalate], the TDI (listed as A7) was 1.71.

— patent publication EP4772560A1, “POLYESTER RESIN COMPRISING REGENERATED BIS(2-HYDROXYETHYL)TEREPHTHALATE, AND ARTICLE COMPRISING POLYESTER RESIN” (SK Chemicals Co., Ltd., priority 2023, dated 2025)
